Source: patent publication US12053465B2, “KCC2 expression enhancing compounds and uses thereof” (Whitehead Institute for Biomedical Research, priority 2017, dated 2024)
Where a SMILES comes first, the peptide text is derived from it. [ ]: non-standard residue; d: D form. The star is where a group is joined. Sta = CC(C)C[C@H](N)[C@@H](O)CC(=O)O; Isovaleryl = CC(C)CC(=O)*

Each molecule was assayed on KCC2 expression (KCC2-2A-luciferase reporter) (assay: KCC2-2A-luciferase reporter compound screening with wild type KCC2 reporter neurons). Conditions: WT human KCC2 reporter neurons; LINCS 0.5 μM, IRSF/SMART and ICCB 10 μM, one week; Luc/CTG normalized to in-plate DMSO; hit = B score >3.
Assay type: cell-based
From the text: In addition, CRISPR/Cas9 genome editing technology was utilized to insert a 2A-luciferase reporter gene directly before the stop codon of the endogenous KCC2 locus in human ES cells, thus creating wild type (WT) cells isogenic to the MECP2-null RTT human KCC2 reporter neurons. KCC2 expression reporter human neurons were differentiated from the gene-targeted ES cells and utilized as the substrate for unbiased compound screening (FIG. 6A; see also FIG. 1A).
Gene-targeted KCC2 reporter cells were used in a HTS pipeline to screen for small molecule compounds that enhance KCC2 gene expression (FIG. 1B; note that reporter neurons were adapted to 384 well format for some screens, and the same workflow was used both for WT KCC2 reporter neurons and RTT KCC2 reporter neurons). Six replicate screens were performed in WT KCC2 reporter neurons using the LINCS and SMART libraries as well as the ICCB known bioactive library (FIG. 6B).
(§1) The cells were dissociated with Accutase, resuspended in 10 ml neuronal differentiation medium to count cells. the final cell seeding density was 20 k-40 k cells per well for 96-well plates, and ˜10 k cells per well for 384-well plates. Matrigel was added to the cell suspension at a dilution ratio of 1:300 to promote cell adhesion after plating. AraC were added to the cell suspension at the concentration of 0.5 μM to inhibit astroglial cell division. The cells were dispensed into 96-well or 384-well plates (Coming) using a BioTek EL406 plate dispenser. […] The neurons were incubated with the compounds at 37° C./5% CO2 for a week before the luciferase assay.
For some screens, on the day of the luciferase assay, the cells were washed with PBS three times using a BioTek EL406 plate washer. Cell lysis buffer (Promega, E1941, 1:5 diluted with water) was added at a volume of 100 μl per well for 96-well plates and 30 μl per well for 384-well plates, and incubated at room temperature for 10 minutes to lyse the cells. A fraction of the cell lysate (30 ul for 96-well, 5 ul for 384-well) was transferred to a new white, opaque plate and Cell Titer-Glo (CTG, Promega, G7572, diluted 2:5 in water) was added and incubated for 20 minutes at room temperature. CTG measures cellular ATP levels as a surrogate for cell viability. The reporter luciferase signal was assayed in the original source plate using Bright-Glo reagent per the manufacturer's protocol (Promega, E1501, 10 ul for 96-well plates, 3 ul for 384-well plates). Assay readouts were performed on a Tecan M1000 Infinite plate reader. For data analysis, the luciferase signal was normalized to the CTG signal to control for number of live cells per well. The Luc/CTG ratio data were then normalized to the in-plate DMSO control to calculate the signal induction fold change. Screening data were processed with CellHTS2 software package to calculate B-score (94)

Structure (SMILES)	B Score
O=C1Nc2ccccc2/C1=C1/Nc2ccccc2C1=O [Indirubin, (3Z)-3-(3-Oxo-1,3-dihydro-2H-indol-2-ylidene)-1,3-dihydro-2H-indol-2-one]	3.73
C[C@H](NCc1ccc(OCc2cccc(F)c2)cc1)C(N)=O [Safinamide, (2S)-2-[[4-[(3-fluorophenyl)methoxy]phenyl]methylamino] propanamide]	4.82
CN(C)c1ccc(C=C2C(=O)Nc3ccccc32)cc1 [SU-4312, 3-(4-Dimethylaminobenzylidenyl)-2-indolinone]	3.55
COc1cc2c(Oc3ccc(NC(=O)C4(C(=O)Nc5ccc(F)cc5)CC4)cc3F)ccnc2cc1OCCCN1CCOCC1 [Foretinib, N1′-[3-fluoro-4-[[6-methoxy-7-(3-morpholinopropoxy)-4-quinolyl]oxy]phenyl]-N1-(4-fluorophenyl)cyclopropane-1,1-dicarboxamide]	4.05
COCc1nc2c([nH]1)c(=O)n(C)c(=O)n2CC(C)C [8-methoxymethyl-IBMX, 8-(Methoxymethyl)-1-methyl-3-(2-methylpropyl)-7H-purine-2,6-dione]	4.8
Cc1nc2n(c(=O)c1CCN1CCC(c3noc4cc(F)ccc34)CC1)CCCC2O (stereo not drawn) [Paliperidone, 9-Hydroxyrisperidone]	11.03

The molecules below were run on KCC2 expression (KCC2-2A-luciferase reporter) (assay: KCC2-2A-luciferase reporter compound screening with RTT KCC2 reporter neurons). Conditions: MECP2-null RTT human KCC2 reporter neurons; LINCS, SMART, ICCB libraries; Luc/CTG normalized to in-plate DMSO; hit = B score >3.
Assay type: cell-based, human
Experimental: The RTT KCC2-2A-luciferase reporter neurons were treated with the test compounds from the LINCS kinase inhibitor library and IRSF SMART compound library and incubated before being lysed. The cell lysate was divided into two parts to measure luciferase signal (KCC2 translation) and Cell-Titer Glow (CTG, amount of ATP). The luciferase signal was normalized to CTG for each well, and the Luc/CTG ratio was normalized to the in-plate DMSO negative control to calculate fold change ratio.
Additional screens for reporter activation in the MECP2-null RTT human KCC2 reporter neurons (isogenic to the WT reporter cells used above) were performed with the LINCS and SMART libraries as well as the ICCB known bioactive library and identified hits as compounds with B score >3.
The cells were dissociated with Accutase and resuspended in 10 ml neuronal differentiation medium to count cells. The cells were then diluted to the final density of 200,000 to 500,000 cells/ml. Matrigel was added to the cell suspension at a dilution ratio of 1:300 to promote cell adhesion after plating. AraC was added to cell suspension at the concentration of 2 μM to inhibit cell division. The cells were plated into 96-well plates with an automated cell seeding machine using the following protocol: The neuron flask was washed with PBS. The neurons were digested off the plate with Accutase for 30 minutes at 37° C. Next, the dissociated cells were collected and spun down at 750 rpm for 5 minutes. The cell pellet was dissociated by gentle trituration with P1000 pipet and the cells were resuspended with 10 ml of neuronal medium. Then, the cells were filtered through a 40 μm cell strainer (Falcon) to get rid of clumps. The resulting single-cell suspension was counted using a Countess automated cell counter (Invitrogen Countess Automated Cell Counter, Catalog no. C10227). The neurons were resuspended with neuronal medium to 10× of the destination density (100,000 cells to 400,000 cells per ml). The cells were plated with a multichannel pipette, or proceeded to the machine-plating protocol described below:
The day after cell seeding, small molecule compounds from the IRSF (International Rett Syndrome Foundation) library were prepared at a concentration of 1 mM and dispensed into a blank V-bottomed test plates at 2 μl per well. Compound solvent DMSO was included in every plate as control. Using a liquid handling robot, about 80 μl of culture medium were discarded. Neuronal medium in the volume of 200 μl was added to the V-bottom test plate that contained 2 μl of 1 mM compounds, and mixed with compounds by pipetting up-and-down 3 times. The medium that contained the 10 μM compounds was then applied to the neuronal cell culture and incubated for 2 weeks before cell lysis and luciferase assay were performed.
as §1
The cells used for luciferase assay were KCC2 reporter neurons differentiated for 4 weeks, and treated with drug in 96-well format for 2 weeks. Cell density was between 20 k-40 k cells per well.
On the day of the luciferase assay, the cells were washed with PBS for two times, and 100 μl of cell lysis buffer was applied to the washed cells. The cell plates were transferred to a rocker to shake for 10 minutes in order to fully lyse the cells.

Structure (SMILES)	B Score
O=C1Nc2ccccc2/C1=C1/Nc2ccccc2C1=O [Indirubin, (3Z)-3-(3-Oxo-1,3-dihydro-2H-indol-2-ylidene)-1,3-dihydro-2H-indol-2-one]	3.73
COc1ccc(CNC(=O)Nc2ncc([N+](=O)[O-])s2)cc1 [AR-AO14418, N-(4-Methoxybenzyl)-N'-(5-nitro-1,3-thiazol-2-yl)urea]	8.69
O=C(Nc1ccc(OC(F)(F)F)cc1)c1sccc1NCc1ccnc2ccccc12 [OSI-930, 3-[(4-quinolinylmethyl)amino]-N-[4-(trifluoromethoxy)phenyl]-2-thiophenecarboxamide]	5.55
C[C@H](NCc1ccc(OCc2cccc(F)c2)cc1)C(N)=O [Safinamide, (2S)-2-[[4-[(3-fluorophenyl)methoxy]phenyl]methylamino] propanamide]	4.82
O=c1c(O)c(-c2ccc(O)cc2)oc2cc(O)cc(O)c12 [Kaempferol, 3,5,7-Trihydroxy-2-(4-hydroxyphenyl)-4H-chromen-4-one]	3.92
O=C(O)c1cccc(-c2noc(-c3ccccc3F)n2)c1 [Ataluren, 3-[5-(2-Fluorophenyl)-1,2,4-oxadiazol-3-yl]benzoic acid]	7.43
O=c1c(-c2ccc(O)cc2)coc2cc(O)ccc12 [Daidzein, 7-hydroxy-3-(4-hydroxyphenyl)-4H-chromen-4-one]	4.64
CCC(C)C(CC)C(N)=O (stereo not drawn) [Valnoctamide, 2-ethyl-3-methyl-pentanamide]	14.99
O=c1cc(-c2ccc(O)c(O)c2)oc2cc(O)cc(O)c12 [Luteolin, 2-(3,4-Dihydroxyphenyl)-5,7-dihydroxy-4-chromenone]	11.34
O=C1CCc2c(ccc3ccccc23)O1 [Splitomycin, 1,2-Dihydro-3H-naphtho[2,1-b]pyran-3-one]	9.79
COc1cc2c(Oc3ccc(NC(=O)C4(C(=O)Nc5ccc(F)cc5)CC4)cc3F)ccnc2cc1OCCCN1CCOCC1 [Foretinib, N1′-[3-fluoro-4-[[6-methoxy-7-(3-morpholinopropoxy)-4-quinolyl]oxy]phenyl]-N1-(4-fluorophenyl)cyclopropane-1,1-dicarboxamide]	4.05
CC(C)CC(=O)N[C@H](C(=O)N[C@H](C(=O)N[C@@H](CC(C)C)[C@@H](O)CC(=O)N[C@@H](C)C(=O)N[C@@H](CC(C)C)[C@@H](O)CC(=O)O)C(C)C)C(C)C [Pepstatin, Isovalery-Val-Val-Sta-Ala-Sta] (Isovaleryl-VV[Sta]A[Sta]-OH)	8.64
COCc1nc2c([nH]1)c(=O)n(C)c(=O)n2CC(C)C [8-methoxymethyl-IBMX, 8-(Methoxymethyl)-1-methyl-3-(2-methylpropyl)-7H-purine-2,6-dione]	4.8
CCOc1ccn(-c2ccc(F)cc2)c(=O)c1C(=O)Nc1ccc(Oc2ccnc(N)c2Cl)c(F)c1 [BMS 777607, N-(4-(2-amino-3-chloropyridin-4-yloxy)-3-fluorophenyl)-4-ethoxy-1-(4-fluorophenyl)-2-oxo-1,2-dihydropyridine-3-carboxamide]	11.97
NC[C@H](CC(=O)O)c1ccc(Cl)cc1 [(R)-Baclofen]	6.65
CC(C)[C@@H]1NC(=O)[C@H](C)OC(=O)[C@@H](C(C)C)NC(=O)[C@@H](C(C)C)OC(=O)[C@H](C(C)C)NC(=O)[C@H](C)OC(=O)[C@@H](C(C)C)NC(=O)[C@@H](C(C)C)OC(=O)[C@H](C(C)C)NC(=O)[C@H](C)OC(=O)[C@@H](C(C)C)NC(=O)[C@@H](C(C)C)OC1=O [Valinomycin, Cyclo-(L-Val-D-HyIva-D-Val-L-Lac-)3]	4.49
O=c1c(O)c(-c2ccc(O)c(O)c2)oc2cc(O)cc(O)c12 [Quercetin-2H2O, 2-(3,4-dihydroxyphenyl)-3,5,7-trihydroxy-4H-chromen-4-one]	7.76
O=c1c(-c2ccc(O)cc2)coc2cc(O)cc(O)c12 [Genistein, 4',5,7-Trihydroxyisoflavone]	5.11

What follows are molecules tested on KCC2 expression (assay: Western blot of KCC2 in cultured human RTT neurons). Conditions: RTT neurons; additional application to Resveratrol.
Assay type: cell-based
Experimental: Protein samples were collected from cultured brain slices or cultured neurons in 12-well format with RIPA lysis buffer (in mM: 150 NaCl, 25 Tris-HCl, 1 EDTA, 1% NP-40, 1% sodium deoxycholate, 0.1% SDS, with protein kinase inhibitor and protease inhibitor, pH adjusted to 7.6). A sonication step was applied to homogenize tissue and extract protein, followed by a 10 minute centrifugation at 4° C. […] The PVDF membrane was blocked for 30 minutes with 5% milk in TBS+0.1% Tween 20 (TBST), and incubated overnight at 4° C. with primary antibodies diluted in TBST-milk at the following concentrations: KCC2 (1:2000, Millipore), NKCC1 (1:1000, Iowa Hybridoma bank), α-Tubulin (1:4000, Abcam), GAPDH (1:3000, Abcam), Actin (1:2000, Sigma Aldrich #A2066). The membrane was rinsed with TBST three times to wash off excess antibodies, and then incubated in secondary HRP antibodies in TBST-milk at 1:5000 concentration.
The PVDF membrane was then stripped using the Re-blot plus strong solution (Millipore), and re-immunoblotted for NKCC1 (˜150 kDa) to acquire KCC2/NKCC1 ratio. The area and intensity of protein signal was determined using ImageJ. The relative KCC2 and NKCC1 expression were calculated by normalizing protein signal to GAPDH or Tubulin loading control.

Structure (SMILES)	effect on Resveratrol-induced KCC2 expression enhancement
NC(=O)C1CCCc2c1[nH]c1ccc(Cl)cc21 (stereo not drawn) [EX-527]	blocked KCC2 expression enhancement

Same assay, conditions: RTT neurons; co-application with Piperine

Structure (SMILES)	effect on Piperine-induced KCC2 expression
O=C(Nc1ccc(S(=O)(=O)C(F)(F)F)cc1)C1=CCN(c2ncccc2C(F)(F)F)CC1 [A784168]	eliminated the KCC2-inducing effect of Piperine

Same assay, conditions: cultured human RTT neurons; Western blot

Structure (SMILES)	KCC2 expression
COc1ccc(C(=O)Nc2sc3c(c2C(N)=O)CCC3)cc1OC [FLT3 Inhibitor-1, 2-(3,4-dimethoxybenzamido)-5,6-dihydro-4H-cyclopenta[b]thiophene-3-carboxamide]	significant enhancement of KCC2 expression
